Assays:
[1] = tested on: tissue engineered strands of rat ventricular cardiomyocytes; assay: Conduction velocity along linear tissue engineered cardiomyocyte strands, optical recording with di-8-ANEPPS; type: cell-based; conditions: for Conduction velocity (CV) along strands of cardiomyocytes: mean+/-SD
Procedure: The effects of Gb3 on impulse propagation characteristics were investigated in tissue engineered strands of rat ventricular cardiomyocytes where impulse propagation was recorded using the voltage sensitive dye di-8-ANEPPS as described below.
(§1) Impulse propagation along the patterned preparations was followed optically using a fast voltage-sensitive dye (Rohr et al., 1994, Biophys J., 67(3):1301-1315). In short, the preparations were stained for 3 to 4 minutes with 1 mL of the superfusion solution containing […] of the voltage-sensitive dye di-8-ANEPPS (Molecular Probes). The dye was excited by a short-arc xenon lamp driven by a low-ripple power supply (Optiquip). The light was, after passing a shutter (VS25S21 MO, Vincent Assoc), short-pass filtered (570 EFSP, Omega) and deflected toward the objective by means of a dichroic mirror (575 nm; Omega). Emitted fluorescence from the preparation was long-pass filtered (590 nm, Omega) and projected onto a 2-dimensional array of 379 optical fibers, which formed a hexagonal array (Rohr et al., 1998, Biophys J., 75(2):1062-1075). From the entire array, ≤80 fibers were selected according to the shape of a given preparation and were connected to individual photodiodes. The resulting photocurrents were converted to voltages and amplified (typical overall gain of 2.5×10^9 V/A f0=1.6 kHz). The conditioned signals were simultaneously sampled at 20 kHz/channel by a computer-based data acquisition system. Experiments were performed with a 20×, 0.75 numerical aperture (NA) objective (each detector monitored a circular area with a diameter of 50 um corresponding to 4 to 10 cells contributing to the signal) permitting assessment of activation along the preparations for distances up to 1 mm.
After mounting the preparations in the experimental chamber, control superfusion was started (Hanks' balanced salt solution (HBSS), containing (mmol/L) NaCl 137, KCl 5.4, CaCl2 1.3, MgSO4 0.8, NaHCO3 4.2, KH2PO4 0.5, NaH2PO4 0.3, and HEPES 10, which was titrated to pH 7.40 with NaOH). The preparations were stimulated with bipolar electrodes consisting of glass micropipettes (filling, HBSS with 1% agar) and a silver wire coiled around the shank of the electrode. The electrodes were attached to micromanipulators (DC-3K, Marzhauser) and placed at a sufficient distance from the measurement site (1 mm) to (1) avoid electronically mediated stimulation artifacts to distort the signal of interest and (2) permit propagation to reach steady-state conditions at the site of the measurement. Rectangular impulses (duration, 1 ms; 2-3 times threshold intensity) were delivered to the preparations at a basic cycle length of 500 ms by a stimulator (SD9, Grass Instruments) for at least 10 seconds before a given optical recording. All experiments were performed at a temperature of 36+/−0.4° C.
The raw data were analyzed by programming routines written in Interactive Data Language (IDL; Creaso). The data processing typically involved manual selection of the upstroke portions of the action potentials to omit any signal distortion due to motion artifacts occurring several milliseconds after the upstrokes. The data were digitally low-pass filtered and signal amplitudes obtained under control conditions were set to 100%.
While control preparations conducted action potentials (APs) at a speed of 321.8±20.9 mm/sec (N=15), CVs in strands incubated with 10 nM Gb3 were increased by over 20% to 390.2±21.3 mm/sec (N=6, p<0.0001 versus control).

[2] = tested on: multi-junction preparations (branched tissue architecture) of rat cardiomyocytes; assay: Conduction velocity in branched (multi-junction) cardiomyocyte preparations, model of discontinuous conduction; type: cell-based; conditions: 10 nmol/L Gb3 for 24 hrs
Procedure: as §1, with “The resulting photocurrents were converted to voltages and amplified (typical overall gain of 2.5×10^9 V/A f0=1.6 kHz). The conditioned signals were simultaneously sampled at 20 kHz/channel by a computer-based data acquisition system.” left out, “mm. […]” for “mm.”
The raw data were analyzed by programming routines written in Interactive Data Language (IDL; Creaso). […]

globotriaosylceramide [Gb3]
Increase of CV versus control ([1]; 10 nM Gb3, 24 hours exposure): over 20%
Conduction velocity (CV) along strands of cardiomyocytes ([1]; 10 nM Gb3, 24 hours exposure, N=6, p<0.0001 versus control (control 321.8±20.9 mm/sec)): 390.2±21.3 mm/sec
Conduction velocity (CV) along strands of cardiomyocytes ([1]; 100 nM Gb3, 24 hours exposure, p<0.005 vs control): 358.8±20.3 mm/sec
Conduction velocity (CV) along strands of cardiomyocytes ([1]; 1 μM Gb3, 24 hours exposure, p=0.3 vs control): 338.4±27.3 mm/sec
Cytotoxic effects ([1]; all Gb3 concentrations used, 24 hours exposure): None of the concentrations of Gb3 used were associated with cytotoxic effects
Increase in CV in branched preparations treated with Gb3 ([2]; versus control branched preparations): ~67%
CV in multi-junction preparations as % of linear strands ([2]; N=25, normalized to linear strands grown in parallel (control multi-junction 57.4±6.7%)): 84.7±2.3%

— patent US12016870B2, “Agents for use in the treatment of cardiac arrhythmia” (priority 2018, dated 2024)
